In patent publication US3954814A, “Alkadienylcyclopropanecarboxylates” (Sumitomo Chemical Company, Limited, priority 1971, dated 1976):
Converted amounts (≈) assume the structure as drawn.

Tests used:
[1] = tested on: house flies; assay: Campbell's turn table oil spray test on house fly adults (Experimental Example 1); format: in vivo; details: Musca domestica, 24 h, oil spray 5 ml, 10 min exposure, mortality after 1 day, read-out: LC50 (50 percent lethal concentration)
Protocol: The present compounds (1), (4), (8), (10), (14), (15), (20), (22), (32), (36), (38), (41), (44), (48), (50), (51), (52), (53), (61), (66), (68), (72), (73), (78), (80), (81), (90), (93) and (96), and chrysanthemic acid esters and pyrethric acid esters corresponding thereto were individually formulated by use of deodorized kerosene into oil sprays of various test concentrations.
Using the Campbell's turn table [disclosed in "Soap & Sanitary Chemicals," Vol. 14, No. 6, page 119 (1938)], 5 ml. of each of the oil sprays was sprayed. When 20 seconds had elapsed after the spraying, the shutter was opened, and adults of house flies (a group of about 100 flies) were exposed to the settling mist for 10 minutes and then transferred to an observation cage.
The above operation was repeated several times to measure the LC50 (50 percent lethal concentration) of each compound.

[2] = tested on: Northern house mosquitoes; assay: knock-down test of oil sprays on Northern house mosquito adults in (70 cm)^3 glass chamber (Experimental Example 2); format: in vivo
Protocol: The present compounds (1), (6), (20), (22), (23), (25), (27), (29), (30), (31), (39), (42), (43), (45), (49), (53), (56), (62), (64), (78), (81), (83), (85), (87), (88) and (89), and chrysanthemic acid esters and pyrethric acid esters corresponding thereto were individually formulated by use of deodorized kerosene into oil sprays of various test concentrations.
About 20 adults of Northern house mosquitoes were liberated in a (70 cm)^3 glass chamber, and 0.7 ml. of each of the oil sprays was sprayed into the chamber under a pressure of 1.5 kg/cm^2 by use of a glass atomizer. Subsequently, the number of knocked-down mosquitoes was counted to calculate the KT50 (50 percent knock down time) of each compound.

[3] = concentration of oil spray 0.2%
[4] = concentration of oil spray 0.1%

Row | Structure (SMILES) | LC50 [1] [µg/mL] | KT50 (50 percent knock down time) [2, 3] [s] | KT50 (50 percent knock down time) [2, 4] [s]
1 | COC(=O)C(C)=CC1C(C(=O)OCc2coc(Cc3ccccc3)c2)C1(C)C (centres unmarked) [5-Benzyl-3-furylmethyl pyrethrate, reference compound] | 890 (≈ 2330 µM) | 182 | –
2 | C=CC(C)=CC1C(C(=O)OCN2C(=O)c3ccccc3C2=S)C1(C)C (centres unmarked) [Present compound (29), Monothiophthalimidomethyl 2,2-dimethyl-3-(2'-methyl-1',3'-butadienyl)-cyclopropanecarboxylate] | – | 182 | –
3 | C=CC=CC1C(C(=O)OCN2C(=O)C3=C(CC=CC3)C2=O)C1(C)C (centres unmarked) [Present compound (88), 3,6-Dihydrophthalimidomethyl 2',2'-dimethyl-3'-(1",3"-butadienyl)-cyclopropanecarboxylate] | – | – | 79
4 | C#CCc1ccc(COC(=O)C2C(C=C(C)C=CC)C2(C)C)o1 (centres unmarked) [Present compound (39), 5-Propargylfurfuryl 2',2'-dimethyl-3'-(2"-methyl-1",3"-pentadienyl)-cyclopropanecarboxylate] | – | 114 | –
5 | C=CCC1=C(C)C(OC(=O)C2C(C=C(C)C=CC)C2(C)C)CC1=O (centres unmarked) [Present compound (42), 2-Allyl-3-methyl-2-cyclopentene-1-one-4-yl 2',2'-dimethyl-3'-(2"-methyl-1",3"-pentadienyl)-cyclopropanecarboxylate] | – | 165 | –
6 | C#CCc1ccc(COC(=O)C2C(C=C(C)C)C2(C)C)o1 (centres unmarked) [5-Propargylfurfuryl chrysanthemate, reference compound] | – | 132 | –
7 | C#CCc1ccc(C(C#C)OC(=O)C2C(C=C(C)C=C)C2(C)C)o1 (centres unmarked) [Present compound (20), 5-Propargylα-ethynylfurfuryl 2',2'-dimethyl-3'-(2"-methyl-1",3"-butadienyl)-cyclopropanecarboxylate] | 90 (≈ 279 µM) | – | 102
8 | C=CC=CC1C(C(=O)OC(C#N)c2cccc(Cc3ccccc3)c2)C1(C)C (stereo not drawn) [Present compound (62), 3-Benzyl-α-cyanobenzyl 2',2'-dimethyl-3'-(1",3"-butadienyl)-cyclopropanecarboxylate] | – | – | 144
9 | C#CCC1=C(C)C(OC(=O)C2C(C=CC=C)C2(C)C)CC1=O (centres unmarked) [Present compound (83), 2-Propargyl-3-methyl-2-cyclopentene-1-one-4-yl 2',2'-dimethyl-3'-(1",3"-butadienyl)-cyclopropanecarboxylate] | – | – | 183
10 | COC(=O)C(C)=CC1C(C(=O)OCc2cccc(Oc3ccccc3)c2)C1(C)C (centres unmarked) [3-Phenoxybenzyl pyrethrate, reference compound] | 1250 (≈ 3170 µM) | – | –
11 | C=CC(C)=CC1C(C(=O)OCN2C(=O)C(C)=C(C)C2=O)C1(C)C (centres unmarked) [Present compound (31), Dimethylmaleimidomethyl 2,2-dimethyl-3-(2'-methyl-1',3'-butadienyl)-cyclopropanecarboxylate] | – | – | 80
12 | C#CCc1ccc(COC(=O)C2C(C=C(C)C=C(C)C)C2(C)C)o1 (centres unmarked) [Present compound (45), 5-Propargylfurfuryl 2',2'-dimethyl-3'-(2",4"-dimethyl-1",3"-pentadienyl)-cyclopropanecarboxylate] | – | 117 | –
13 | C#CCC1=C(C)C(OC(=O)C2C(C=C(C)C)C2(C)C)CC1=O (centres unmarked) [2-Propargyl-3-methyl-2-cyclopentene-1-one-4-yl chrysanthemate, reference compound] | – | – | 249
14 | CC(C)=CC1C(C(=O)OCN2C(=O)C(C)=C(C)C2=O)C1(C)C (centres unmarked) [Dimethylmaleimidomethyl chrysanthemate, reference compound] | – | – | 101
15 | C=CC=CC1C(C(=O)OC(C#N)c2cccc(Oc3cccc(C)c3)c2)C1(C)C (stereo not drawn) [Present compound (96), 3-(m-Tolyloxy)-α-cyanobenzyl 2',2'-dimethyl-3'-(1",3"-butadienyl)-cyclopropanecarboxylate] | 60 (≈ 155 µM) | – | –
16 | CC(C)=CC1C(C(=O)OCN2C(=O)C3=C(CCCC3)C2=O)C1(C)C (centres unmarked) [3,4,5,6-Tetrahydrophthalimidomethyl chrysanthemate, reference compound] | – | – | 103
17 | CC(C)=CC1C(C(=O)OCN2C(=O)C3=C(CC=CC3)C2=O)C1(C)C (centres unmarked) [3,6-Dihydrophthalimidomethyl chrysanthemate, reference compound] | – | – | 107

Row | Structure (SMILES) | LC50 [1] [µg/mL] | KT50 (50 percent knock down time) [2, 3] [s] | KT50 (50 percent knock down time) [2, 4] [s]
18 | C#CCc1ccc(C(C#C)OC(=O)C2C(C=C(C)C(=O)OC)C2(C)C)o1 (stereo not drawn) [5-Propargyl-α-ethynylfurfuryl pyrethrate, reference compound] | 820 (≈ 2310 µM) | – | –
19 | CC(C)=CC(C)=CC1C(C(=O)OCN2C(=O)C3=C(CCCC3)C2=O)C1(C)C (centres unmarked) [Present compound (49), 3,4,5,6-Tetrahydrophthalimidomethyl 2',2'-dimethyl-3'-(2",4"-dimethyl-1",3"-pentadienyl)-cyclopropanecarboxylate] | – | – | 86
20 | C=CCC1=C(C)C(OC(=O)C2C(C=C(C)C(=O)OC)C2(C)C)CC1=O (centres unmarked) [2-Allyl-3-methyl-2-cyclopentene-1-one-4-yl pyrethrate, reference compound] | – | 173 | –
21 | CC=C(C)C=CC1C(C(=O)OCc2coc(Cc3ccccc3)c2)C1(C)C (centres unmarked) [Present compound (56), 5-Benzyl-3-furylmethyl 2',2'-dimethyl-3'-(3"-methyl-1",3"-pentadienyl)-cyclopropanecarboxylate] | – | 150 | –
22 | CC(C)=CC1C(C(=O)OCN2C(=O)c3ccccc3C2=S)C1(C)C (centres unmarked) [Monothiophthalimidomethyl chrysanthemate, reference compound] | – | 207 | –
23 | C#CCC1=C(C)C(OC(=O)C2C(C=C(C)C=C)C2(C)C)CC1=O (centres unmarked) [Present compound (25), 2-propargyl-3-methyl-2-cyclopentene-1-one-4-yl 2',2'-dimethyl-3'-(2"-methyl-1",3"-butadienyl)-cyclopropanecarboxylate] | – | – | 190
24 | C=CC(C)=CC1C(C(=O)OCN2C(=O)C3=C(CC=CC3)C2=O)C1(C)C (centres unmarked) [Present compound (30), 3,6-Dihydrophthalimidomethyl 2',2'-dimethyl-3'-(2"-methyl-1",3"-butadienyl)-cyclopropanecarboxylate] | – | – | 89
25 | C=CCc1cc(C)c(COC(=O)C2C(C=C(C)C(=O)OC)C2(C)C)c(C)c1 (centres unmarked) [2,6-Dimethyl-4-allylbenzyl pyrethrate, reference compound] | 1420 (≈ 3830 µM) | – | –
26 | C#CCc1ccc(COC(=O)C2C(C=C(C)C=C)C2(C)C)o1 (centres unmarked) [Present compound (6), 5-Propargylfurfuryl 2',2'-dimethyl-3'-(2"-methyl-1",3"-butadienyl)-cyclopropanecarboxylate] | – | 105 | –
27 | C=CC(C)=CC1C(C(=O)OCN2C(=O)C3=C(CCCC3)C2=O)C1(C)C (centres unmarked) [Present compound (27), 3,4,5,6-Tetrahydrophthalimidomethyl 2',2'-dimethyl-3'-(2"-methyl-1",3"-butadienyl)-cyclopropanecarboxylate] | – | – | 83
28 | C=CC=CC1C(C(=O)OCN2C(=O)C3=C(CCCC3)C2=O)C1(C)C (centres unmarked) [Present compound (85), 3,4,5,6-Tetrahydrophthalimidomethyl 2',2'-dimethyl-3'-(1",3"-butadienyl)-cyclopropanecarboxylate] | – | – | 74
29 | C=CCC1=C(C)C(OC(=O)C2C(C=C(C)C=C)C2(C)C)CC1=O (centres unmarked) [Present compound (23), 2-Allyl-3-methyl-2-cyclopentene-1-one-4-yl 2',2'-dimethyl-3'-(2"-methyl-1",3"-butadienyl)-cyclopropanecarboxylate] | – | 152 | –
30 | C#CCc1ccc(COC(=O)C2C(C=CC=C)C2(C)C)o1 (centres unmarked) [Present compound (64), 5-Propargylfurfuryl 2',2'-dimethyl-3' -(1",3"-butadienyl)-cyclopropanecarboxylate] | – | 98 | –
31 | C=CC=CC1C(C(=O)OCN2C(=O)c3ccccc3C2=S)C1(C)C (centres unmarked) [Present compound (87), Monothiophthalimidomethyl 2',2'-dimethyl-3'-(1",3"-butadienyl)-cyclopropanecarboxylate] | – | 177 | –
32 | CC=CC(C)=CC1C(C(=O)OCN2C(=O)C3=C(CCCC3)C2=O)C1(C)C (centres unmarked) [Present compound (43), 3,4,5,6-Tetrahydrophthalimidomethyl 2',2'-dimethyl-3'-(2"-methyl-1",3"-pentadienyl)-cyclopropanecarboxylate] | – | – | 197
33 | C=CC=CC1C(C(=O)OCN2C(=O)C(C)=C(C)C2=O)C1(C)C (centres unmarked) [Present compound (89), Dimethylmaleimidomethyl 2,2-dimethyl-3-(1',3'-butadienyl)-cyclopropanecarboxylate] | – | – | 72
